# In US20050009894A1 (Aventis Pharma S.A., priority 2001, published 2005):
# Read-outs that look alike come from different tables or passages of the source.
# Target: T1, human KDR enzyme (Homo sapiens, UniProt P35968)
# T1 construct: The cytoplasmic domain of human KDR enzyme is cloned in the form of a GST fusion; GST; made in house; host or cells: SF21 insect cells (baculovirus, pFastBac)
# Experiment: Phosphorylation of the substrate PLCγ by the enzyme KDR in vitro (flashplate technique)
# Type: biochemical
# Settings: for inhibition at 10 µM: product tested at 10 μM, read-out: % of inhibition of the phosphorylation of PLCγ by KDR (product tested at a concentration of 10 μM)
# How it was run: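 GST-fused human KDR cytoplasmic domain (Sf21 baculovirus, ~60% pure; 100 ng/well) phosphorylating 2 μg GST-PLCγ SH2-SH3 fragment in MOPS pH 7.2 with MgCl2/MnCl2, 1 h at 37° C. Started with γ33P-ATP plus cold ATP (2 μM in start solution); flashplate radioactivity. % inhibition vs no-compound control; IC50 from dose-response curves.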
# [1] = Table VII, degrees of activity by IC50 range, read-out: Activity
# [2] = read-out: IC50 (μM) on inhibition of the phosphory-lation of PLCγ by KDR
# T1 sequence (P35968 786-1356 limits assumed): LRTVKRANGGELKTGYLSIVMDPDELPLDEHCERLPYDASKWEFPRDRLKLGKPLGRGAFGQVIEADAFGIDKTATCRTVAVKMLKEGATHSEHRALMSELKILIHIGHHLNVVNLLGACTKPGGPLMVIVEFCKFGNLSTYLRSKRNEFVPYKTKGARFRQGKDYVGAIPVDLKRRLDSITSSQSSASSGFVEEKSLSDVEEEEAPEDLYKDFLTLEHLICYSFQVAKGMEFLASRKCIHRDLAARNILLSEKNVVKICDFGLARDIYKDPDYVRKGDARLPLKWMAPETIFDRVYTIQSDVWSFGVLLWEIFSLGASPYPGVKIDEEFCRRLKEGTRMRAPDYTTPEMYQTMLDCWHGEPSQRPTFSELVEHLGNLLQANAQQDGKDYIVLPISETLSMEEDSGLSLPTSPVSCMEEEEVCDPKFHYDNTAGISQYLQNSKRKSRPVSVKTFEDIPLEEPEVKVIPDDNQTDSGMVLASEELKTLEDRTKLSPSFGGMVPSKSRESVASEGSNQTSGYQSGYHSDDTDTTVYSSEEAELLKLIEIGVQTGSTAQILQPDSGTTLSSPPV
IC50 [1] [µM],Compound,further results
0.3 to 3,"O=C(NCc1ccccc1F)c1ccc2[nH]c(-c3n[nH]c4ccccc34)nc2c1 [Example 154, 2-(1H-Indazol-3-yl)-1H-benzoimidazole-5-carboxylic acid 2-fluoro-benzylamide]",
0.3 to 3,"NS(=O)(=O)c1ccc(CNC(=O)c2cccc3nc(-c4n[nH]c5ccccc45)[nH]c23)cc1 [Example 73, 2-(1H-Indazol-3-yl)-3H-benzoimidazole-4-carboxylic acid 4-sulfamoyl-benzylamide]",
> 3,"O=C(NCc1cccc(Cl)c1)c1cccc2nc(-c3n[nH]c4ccccc34)[nH]c12 [Example 93, 2-(1H-Indazol-3-yl)-3H-benzoimidazole-4-carboxylic acid 3-chloro-benzylamide]",
0.3 to 3,"O=C(NCc1cc(F)c(F)c(F)c1)c1ccc2[nH]c(-c3n[nH]c4ccccc34)nc2c1 [Example 161, 2-(1H-Indazol-3-yl)-1H-benzoimidazole-5-carboxylic acid 3,4,5-trifluoro-benzylamide]",
0.3 to 3,"O=C(NCCCn1ccnc1)c1ccc2[nH]c(-c3n[nH]c4ccccc34)nc2c1 [Example 174, 2-(1H-Indazol-3-yl)-1H-benzoimidazole-5-carboxylic acid (3-imidazol-1-yl-propyl)-amide]",
0.3 to 3,"O=C(NCc1ccsc1)c1ccc2[nH]c(-c3n[nH]c4ccccc34)nc2c1 [Example 68, 2-(1H-Indazol-3-yl)-1H-benzoimidazole-5-carboxylic acid (thiophen-3-ylmethyl)-amide]",
> 3,"c1ccc2c(-c3ccc4nc(-c5[nH]nc6ccccc56)[nH]c4c3)cccc2c1 [Example 99, 3-(6-Naphthalen-1-yl-1H-benzoimidazol-2-yl)-2H-indazole]",
< 0.3,"Cc1cc(Cl)cc(F)c1CNC(=O)c1ccc2[nH]c(-c3n[nH]c4ccccc34)nc2c1 [Example 179, 2-(1H-Indazol-3-yl)-1H-benzoimidazole-5-carboxylic acid (2-fluoro-4-chloro-6-methyl-benzyl)amide]",
> 3,"O=C(NCc1cccc2ccccc12)c1cccc2nc(-c3n[nH]c4ccccc34)[nH]c12 [Example 76, 2-(1H-Indazol-3-yl)-3H-benzoimidazole-4-carboxylic acid (naphthalen-1-ylmethyl)-amide]",
0.3 to 3,"O=C(NCC1CCOCC1)c1ccc2[nH]c(-c3n[nH]c4ccccc34)nc2c1 [Example 64, 2-(1H-Indazol-3-yl)-1H-benzoimidazole-5-carboxylic acid (tetrahydro-pyran-4-ylmethyl)-amide]",
< 0.3,"O=C(NCc1ccc(Cl)c(F)c1)c1ccc2[nH]c(-c3n[nH]c4ccccc34)nc2c1 [Example 178, 2-(1H-Indazol-3-yl)-1H-benzoimidazole-5-carboxylic acid (3-fluoro-4-chloro-benzyl)amide]",
> 3,"O=C(NCc1ccc(-c2ccc(Cl)cc2)cc1)c1ccc2[nH]c(-c3n[nH]c4ccccc34)nc2c1 [Example 162, 2-(1H-Indazol-3-yl)-1H-benzoimidazole-5-carboxylic acid (4′-chloro-biphenyl-4-ylmethyl)-amide]",
0.3 to 3,"O=C(NCc1cccc([N+](=O)[O-])c1)c1ccc2[nH]c(-c3n[nH]c4ccccc34)nc2c1 [Example 153, 2-(1H-Indazol-3-yl)-1H-benzoimidazole-5-carboxylic acid 3-nitro-benzylamide]",
0.3 to 3,"N#Cc1ccc(CNC(=O)c2ccc3[nH]c(-c4n[nH]c5ccccc45)nc3c2)cc1 [Example 59, 2-(1H-Indazol-3-yl)-1H-benzoimidazole-5-carboxylic acid 4-cyano-benzylamide]",
> 3,"O=C(COc1cc(-c2nc3ccccc3[nH]2)[nH]n1)c1ccc2ccccc2c1 [Example 207, 2-[5-(1H-Benzoimidazol-2-yl)-1H-pyrazol-3-yloxy]-1-naphthalen-2-yl-ethanone]",
< 0.3,"Cc1cc(Cl)ccc1CNC(=O)c1ccc2[nH]c(-c3n[nH]c4ccccc34)nc2c1 [Example 169, 2-(1H-Indazol-3-yl)-1H-benzoimidazole-5-carboxylic acid 4-chloro-2-methyl-benzylamide]",
> 3,"O=C(NCc1csc2ccc(Cl)cc12)c1ccc2[nH]c(-c3n[nH]c4ccccc34)nc2c1 [Example 60, 2-(1H-Indazol-3-yl)-1H-benzoimidazole-5-carboxylic acid (5-chloro-benzo[b]thiophen-3-ylmethyl)-amide]",
0.3 to 3,"O=C(NCc1cccc(OC(F)(F)F)c1)c1ccc2[nH]c(-c3n[nH]c4ccccc34)nc2c1 [Example 49, 2-(1H-Indazol-3-yl)-1H-benzoimidazole-5-carboxylic acid 3-trifluoromethoxy-benzylamide]",

# Continued, compound first:
Compound,IC50 [1] [µM],further results
"O=C(Oc1cc(-c2nc3ccccc3[nH]2)[nH]n1)c1cccs1 [Example 228, Thiophene-2-carboxylic acid 5-(1H-benzoimidazol-2-yl)-1H-pyrazol-3-yl ester]",> 3,
"Fc1ccc(-c2ccc3nc(-c4[nH]nc5ccccc45)[nH]c3c2)c(F)c1 [Example 135, 3-[6-(2,4-Difluoro-phenyl)-1H-benzoimidazol-2-yl]-2H-indazole]",0.3 to 3,
"O=C(Nc1ccccc1)c1ccc2[nH]c(-c3n[nH]c4ccccc34)nc2c1 [Example 5, 2-(1H-Indazol-3-yl)-1H-benzimidazole-5-carboxylic acid N-phenylamide]",,inhibition at 10 µM: 91.9%
"c1ccc2sc(-c3ccc4nc(-c5[nH]nc6ccccc56)[nH]c4c3)cc2c1 [Example 126, 3-(6-Benzo[b]thiophen-2-yl-1H-benzoimidazol-2-yl)-2H-indazole]",> 3,
"CCNC(=O)c1ccc2[nH]c(-c3n[nH]c4ccccc34)nc2c1 [Example 3, 2-(1H-Indazol-3-yl)-1H-benzimidazole-5-carboxylic acid N-ethylamide]",,inhibition at 10 µM: 91.8%
"O=C(NCc1ccccc1)c1ccc2nc(-c3n[nH]c4ccccc34)[nH]c2c1 [Example 1, 2-(1H-Indazol-3-yl)-1H-benzimidazole-5-carboxylic acid benzylamide]",,IC50 [2]: 0.47 µM
"CCC(=O)COc1cc(-c2nc3ccccc3[nH]2)[nH]n1 [Example 201, 1-[5-(1H-Benzoimidazol-2-yl)-1H-pyrazol-3-yloxy]-butan-2-one]",> 3,
"c1ccc(-c2ccc(-c3ccc4nc(-c5[nH]nc6ccccc56)[nH]c4c3)cc2)cc1 [Example 106, 3-(6-Biphenyl-4-yl-1H-benzoimidazol-2-yl)-2H-indazole]",> 3,
"c1ccc(COc2ccc(-c3ccc4nc(-c5[nH]nc6ccccc56)[nH]c4c3)cc2)cc1 [Example 130, 3-[6-(4-Benzyloxy-phenyl)-1H-benzoimidazol-2-yl]-2H-indazole]",> 3,
"O=C(Oc1cc(-c2nc3ccccc3[nH]2)[nH]n1)C(F)(F)C(F)(F)C(F)(F)F [Example 222, 2,2,3,3,4,4,4-Heptafluoro-butyric acid 5-(1H-benzoimidazol-2-yl)-1H-pyrazol-3-yl ester]",> 3,
"Brc1cccc(COc2cc(-c3nc4ccccc4[nH]3)[nH]n2)c1 [Example 185, 2-[5-(3-Bromo-benzyloxy)-2H-pyrazol-3-yl]-1H-benzoimidazole]",0.3 to 3,
"FC(F)(F)Oc1ccc(-c2ccc3nc(-c4[nH]nc5ccccc45)[nH]c3c2)cc1 [Example 124, 3-[6-(4-Trifluoromethoxy-phenyl)-1H-benzoimidazol-2-yl]-2H-indazole]",> 3,
"Fc1c(F)c(F)c(COc2cc(-c3nc4ccccc4[nH]3)[nH]n2)c(F)c1F [Example 189, 2-(5-Pentafluoro-phenylmethoxy-2H-pyrazol-3-yl)-1H-benzoimidazole]",> 3,
"CC(C)c1ccc(-c2ccc3nc(-c4[nH]nc5ccccc45)[nH]c3c2)cc1 [Example 144, 3-[6-(4-Isopropyl-phenyl)-1H-benzoimidazol-2-yl]-2H-indazole]",0.3 to 3,
"O=C(Oc1cc(-c2nc3ccccc3[nH]2)[nH]n1)c1ccncc1 [Example 214, Isonicotinic acid 5-(1H-benzoimidazol-2-yl)-1H-pyrazol-3-yl ester]",0.3 to 3,
"c1ccc2[nH]c(-c3cc(OCCN4CCOCC4)n[nH]3)nc2c1 [Example 195, 2-[5-(2-Morpholin-4-yl-ethoxy)-2H-pyrazol-3-yl]-1H-benzoimidazole]",> 3,
"CCc1cc(-c2nc3cc(C)c(C)cc3[nH]2)[nH]n1 [Example 23, 2-(5-Ethyl-2H-pyrazol-3-yl)-5,6-dimethyl-1H-benzimidazole]",,IC50 [2]: 2 µM
"Clc1ccc(-c2ccc3nc(-c4[nH]nc5ccccc45)[nH]c3c2)cc1Cl [Example 123, 3-[6-(3,4-Dichloro-phenyl)-1H-benzoimidazol-2-yl]-2H-indazole]",> 3,
"Cc1cc(F)ccc1-c1ccc2nc(-c3[nH]nc4ccccc34)[nH]c2c1 [Example 137, 3-[6-(4-Fluoro-2-methyl-phenyl)-1H-benzoimidazol-2-yl]-2H-indazole]",0.3 to 3,
"FC(F)(F)c1ccc(-c2ccc3nc(-c4[nH]nc5ccccc45)[nH]c3c2)cc1 [Example 112, 3-[6-(4-Trifluoromethyl-phenyl)-1H-benzoimidazol-2-yl]-2H-indazole]",> 3,
"Cc1cc2nc(-c3n[nH]c4ccccc34)[nH]c2cc1C [Example 15, 5,6-Dimethyl-2-(1H-indazol-3-yl)-1H-benzimidazole]",,IC50 [2]: 0.8 µM
"CC(C)(C)c1ccc(COc2cc(-c3nc4ccccc4[nH]3)[nH]n2)cc1 [Example 190, 2-[5-(4-tert-Butyl-benzyloxy)-2H-pyrazol-3-yl]-1H-benzoimidazole]",> 3,
"O=C(c1ccc2[nH]c(-c3n[nH]c4ccccc34)nc2c1)N1CCCC1 [Example 9, 2-(1H-Indazol-3-yl)-1H-benzimidazole-5-carboxylic acid N-pyrrolidinoamide]",,IC50 [2]: 0.35 µM
